According to patent publication US10342804B2, “Steroid compound for use in the treatment of hepatic encephalopathy” (Umecrine Cognition AB, priority 2014, dated 2019):
Read-outs that look alike come from different tables or passages of the source.

Columns and labels:
PCS rats [1] = test: Beam walking test, PCS rats (Example 8); assay type: in vivo, rat
Experimental: (§1) Male Wistar rats (220-240 g) were anesthetized with isoflurane, and an end-to side porta-caval anastomosis was performed as described by Lee and Fisher (Surgery, 1961, 50, 668-672).
(§2) Rats that were subjected to the porta-caval anastomosis procedure are herein referred to as “PCS rats”.
3α-ethynyl-3β-hydroxyandrostan-17-one oxime in sesame oil was administered by subcutaneous injections in the back of the rats, once daily. Two different sets of experiments were performed in hyperammonemic rats. In the first set four groups of rats were used: 1) control rats injected with vehicle; 2) hyperammonemic rats injected with vehicle; 3) control rats injected with 20 mg/Kg of 3α-ethynyl-3β-hydroxyandrostan-17-one oxime and 4) hyperammonemic rats injected with 20 mg/Kg of 3α-ethynyl-3β-hydroxyandrostan-17-one oxime. […]
Motor coordination was tested as described by Gonzalez-Usano et al (ACS Chemical Neuroscience, 2014, 19, 5(2), 100-105) using a wooden beam (20 mm diameter). Rats were made to traverse a one-meter-long wooden beam located approximately one meter above the ground, and the number of foot faults (slips) was recorded by two observers. The rats were trained for the test by being made to traverse the beam up to five times before measurements were recorded. […]

PCS rats [2] = test: Radial maze test, PCS rats (Example 10); assay type: in vivo, rat
Experimental: as §1, §2
(§3) 3α-ethynyl-3β-hydroxyandrostan-17-one oxime in sesame oil was administered by subcutaneous injections in the back of the rats, once daily. Two different sets of experiments were performed in hyperammonemic rats. In the first set four groups of rats were used: 1) control rats injected with vehicle; 2) hyperammonemic rats injected with vehicle; 3) control rats injected with 20 mg/Kg of 3α-ethynyl-3β-hydroxyandrostan-17-one oxime and 4) hyperammonemic rats injected with 20 mg/Kg of 3α-ethynyl-3β-hydroxyandrostan-17-one oxime.
For the experiments using PCS rats, the following groups of rats were used: 1) Sham rats injected with vehicle; 2) PCS rats injected with vehicle; 3-4) PCS rats injected with 0.7 or 2.5 mg/Kg of 3α-ethynyl-3β-hydroxyandrostan-17-one oxime. […]
The apparatus was composed of a central area that gave access to eight equally-sized arms. […] The number of working memory errors (visits to arms already visited in the same trial) were recorded and expressed as working errors.

PCS rats [3] = test: Circadian rhythms of spontaneous locomotor activity (actimeter), PCS rats (Example 11); assay type: in vivo, rat
Experimental: as §1, §2, §3
For the experiments using PCS rats, the following groups of rats were used: 1) Sham rats injected with vehicle; 2) PCS rats injected with vehicle; 3-4) PCS rats injected with 0.7 or 2.5 mg/Kg of 3α-ethynyl-3β-hydroxyandrostan-17-one oxime. The number of rats used in each experiment is either shown in the corresponding Figure or given in the description of the corresponding Figure.
Motor activity was measured using an actimeter (Med Associates, S t. Albans, Vt.). Rats were placed individually in an open-field activity chamber (43×43×31 cm), and motor activity was recorded continuously for 14 days in conditions of light-dark (L:D), 12 h:12 h. Data were recorded at intervals of 5 minutes. Motor activity was detected by arrays of infrared motion detectors, placed in three directions, x, y and z. One ambulatory count is recorded by the apparatus when the rat interrupts three consecutive infrared detectors, in x or y position. A vertical count is recorded when rat interrupts infrared detectors in z position. The software allows measuring different parameter of motor activity, such as ambulatory counts or vertical counts (Ahabrach et al. Journal of Neuroscience Research, 2010, 88, 1605-14).

[4] = Exposure in plasma and brain tissue, hyperammonemic rats (Example 13); assay type: in vivo, rat; details: for Total concentration in plasma: at the time for behavioral testing
Experimental: Male Wistar rats (140-160 g) were made hyperammonemic by feeding them a diet containing ammonium acetate (30% by weight) (Felipo et al, European Journal of Biochemistry, 1988, 176, 567-571).
as §3
In the second set of experiments five groups of rats were used: 1) control rats injected with vehicle; 2) hyperammonemiac rats injected with vehicle and 3-5) hyperammonemic rats injected with 3, 10 or 20 mg/Kg of 3α-ethynyl-3β-hydroxyandrostan-17-one oxime. In each experiment 6-8 rats per group were used.
(§4) At the end of the treatment period plasma was collected from the tail vein, and after sacrifice by decapitation brains were collected and immediately frozen on dry ice. For analysis of 3α-ethynyl-3β-hydroxyandrostan-17-one oxime exposure, brain tissue was homogenized with a 1:4 ratio of tissue: PBS (pH 7.4) and then extracted with a 2-fold volume of methanol:acetonitrile (1:1), while plasma was protein-precipitated with a 3-fold volume with acetonitrile. Analyses were performed by Waters ACQUITY UPLC+Waters XEVO-TQS triple quadrupole mass spectrometer (Admescope Oy, Oulu, Finland). For calculations of the amount of free 3α-ethynyl-3β-hydroxyandrostan-17-one oxime exposure in the brain the fraction unbound (Fb) in brain homogenates were determined by dialysis, Fub in HA=[…] and Fub in PCS=1.43% (Admescope Oy, Oulu, Finland).

[5] = Fraction unbound in brain homogenates by dialysis; assay type: in vitro ADME; details: rat, brain homogenate, read-out: Fraction unbound (Fub) in brain homogenates
Experimental: as §4

C#C[C@]1(O)CC[C@@]2(C)C(CC[C@@H]3[C@@H]2CC[C@]2(C)/C(=N\O)CC[C@@H]32)C1 (stereo partly drawn) [3α-ethynyl-3β-hydroxyandrostan-17-one oxime]
Number of slips, beam walking test (PCS rats [1]; 0.7 mg/kg s.c. once daily): 0.75±0.10 slips | Number of slips, beam walking test (PCS rats [1]; 2.5 mg/Kg s.c. once daily): 0.8±0.1 slips | Number of working errors in days 1-2, radial maze (PCS rats [2]; 0.7 mg/Kg): 23±2 errors | Number of working errors in days 1-2, radial maze (PCS rats [2]; 2.5 mg/Kg): 11±1 errors | Motor activity (ambulatory counts) during the night (PCS rats [3]; 0.7 mg/kg): 2652±275 counts | Night/day ratio of ambulatory activity (PCS rats [3]; 0.7 mg/kg): 1.7±0.2 | Night/day ratio of vertical activity (PCS rats [3]; 0.7 mg/kg): 2.1±0.4 | Vertical activity during the day (PCS rats [3]; 0.7 mg/kg): 339±47 counts | Vertical activity during the night (PCS rats [3]; 0.7 mg/kg): 664±121 counts | Motor activity (ambulatory counts) during the night (PCS rats [3]; 2.5 mg/kg): 2235±170 counts | Night/day ratio of ambulatory activity (PCS rats [3]; 2.5 mg/kg): 1.6±0.3 | Night/day ratio of vertical activity (PCS rats [3]; 2.5 mg/kg): 1.9±0.6 | Vertical activity during the day (PCS rats [3]; 2.5 mg/kg): 424±44 counts | Vertical activity during the night (PCS rats [3]; 2.5 mg/kg): 695±185 counts | Unbound concentration in the brain tissue ([4]; 3 mg/Kg s.c. once daily): 6.1 ± 1.4 nmol/kg | Total concentration in plasma ([4]; 3 mg/Kg s.c. once daily): 0.34 ± 0.03 µM | Unbound concentration in the brain tissue ([4]; 10 mg/Kg s.c. once daily): 11.6 ± 1.4 nmol/kg | Total concentration in plasma ([4]; 10 mg/Kg s.c. once daily): 1.08 ± 0.11 µM | Unbound concentration in the brain tissue ([4]; 20 mg/Kg s.c. once daily): 23 ± 5 nmol/kg | Total concentration in plasma ([4]; 20 mg/Kg s.c. once daily): 1.95 ± 0.61 µM | fraction unbound ([5]; pH 7.4, HA rats): 0.007 | fraction unbound ([5]; pH 7.4, PCS rats): 0.0143
